In patent US20130253058A1, “SATIETY-INDUCING COMPOSITION” (DSM IP ASSETS B.V., priority 2009, published 2013):
Read-outs that look alike come from different tables or passages of the source.

Details: 3.5 % lipids in yoghurt
Method: Analogous to example 2 four yoghurts with 3.5% fat (lipids) were followed during transit in the TNO intestinal Model (TIM).
The digestion process in the model was monitored for 5 hours. During the first 3 hours, the gastric content was gradually delivered into the small intestine via the Pyloric valve. At the end of the experiment, approximately 80% of the small intestine content was gradually delivered into the Large intestine via the Ileocecal valve.
Gastric secretions consisted of pepsin from porcine gastric mucosa (EC 3.4.23.1; Sigma-Aldrich Canada) and lipase (EC 3.1.1.3, from Rhizopus oryzae, Amano Pharmaceuticals, Japan), both dissolved in a Gastric Electrolyte Solution (GES: 3.1 g/l NaCl; 1.1 g/l KCl; 0.15 g/l CaCl2; 0.6 g/l NaHCO3). At the beginning of the experiment, a solution of trypsin from porcine pancreas (EC 3.4.21.4; Sigma-Aldrich Canada) was directly introduced into the duodenum. Also, porcine bile extract (supernatant of centrifuged, thawed bile from frozen, fresh collected porcine bile); pancreatic solution (Pancrex V powder; Paines and Byrne, UK), and intestine electrolyte solution (5.0 g/l NaCl; 0.6 g/l KCl; 0.3 g/l CaCl2 at pH 7.0) were delivered in the duodenal compartment.
Prior to testing the yoghurt containers were gently shaken to homogenise contents. At the beginning of each experiment, a 270 g amount of yoghurt was introduced into the gastric (i.e. stomach)—compartment of the TIM. At specific intervals samples were taken from different compartments of the gastro-intestinal tract (Gastric-; jejunum- and ileum lumen). A selection of fresh lumen samples were also directly visually studied by Bright Field microscope (Leica ATC2000 Binocular Microscope), equipped with a phase contrast mode.
The profile of the free fatty acid part of the lipid composition (FFA analysis) was determined by a method developed by the NIZO.
The free fatty acid level for all fatty acids in the ileum as well as the saturated fatty acid (FA) fraction C16:0 and C18:0 and higher in the ileum lumen were determined using FFA method as described above.

Total FFA levels in the ileum lumen (1 h): 171.5 g FFA/kg dry matter | saturated FFA (C16:0 + C18:0 + C20:0) based on total FFA in the ileum lumen (1 h): 91.4 w/w % | Total FFA levels in the ileum lumen (2 h): 348.3 g FFA/kg dry matter | saturated FFA (C16:0 + C18:0 + C20:0) based on total FFA in the ileum lumen (2 h): 96.6 w/w % | Total FFA levels in the ileum lumen (3 h): 504.8 g FFA/kg dry matter | saturated FFA (C16:0 + C18:0 + C20:0) based on total FFA in the ileum lumen (3 h): 97.8 w/w % | Total FFA levels in the ileum lumen (4 h): 461.6 g FFA/kg dry matter | saturated FFA (C16:0 + C18:0 + C20:0) based on total FFA in the ileum lumen (4 h): 97.5 w/w % | Total FFA levels in the ileum lumen (5 h): 466.2 g FFA/kg dry matter | saturated FFA (C16:0 + C18:0 + C20:0) based on total FFA in the ileum lumen (5 h): 97.6 w/w %
Compound: CCCCCCCCCCCCCCCC(=O)O [Palmitic acid]
